From US10455849B2, “Method for the preparation of a protein peptide, a protein peptide and use thereof” (INFINITUS (CHINA) COMPANY LTD., priority 2015, dated 2019)
Marks after values point to notes of the source that are not given here.

Key:
[1] = system: rats having hyperuricemia induced by potassium oxonate; assay: Serum uric acid content of rats having hyperuricemia induced by potassium oxonate (tungstic acid method); format: in vivo, rat; conditions: allopurinol group 50 mg·kg^−1; p<0.01; day not given
From the text: (§1) 180 SD rats (SPF grade, male, 200±20 (g)) were provided by Laboratory Animals Centre, Guangzhou University of Chinese Medicine (License Number: SCXK(Yue)2013-0020). Reagents: allopurinol tablets (Guangdong P.D. Pharmaceutical Co., Ltd., Production batch No. 20130302); potassium oxonate (Shandong Zhongke Taidou Chemical Co., Ltd., Batch No. 120901); sodium carboxymethyl cellulose (Shanghai Celluloid Factory, Product Standard No. GB2760); uric acid assay kit (NanJing Jiancheng Bioengineering Institute, Production batch No. 20130529).
(§2) Animal grouping and modeling: 165 normal healthy SD male rats were obtained and randomly divided into normal control group (15 rats) and model group (150 rats). […] Those rats having a uric acid content of greater than 110 μmol·L^−1 were determined to be successful models. […] On 10th and 20th day after treatment with the above-described peptide samples, 50 min after the last administration, the rats were anaesthetized with 3% pentobarbitol sodium (i.p., 30 mg·kg^−1), and the blood (0.5 ml) was collected from conjunctiva and the serum uric acid content was determined. On 30th day after treatment with antigout peptides, the rats were anaesthetized with 3% pentobarbitol sodium, and 5 ml of blood was collected from coeliac artery and the content of serum creatinine and urea nitrogen were determined at the same time in addition to the serum uric acid content. […]

[2] = system: rats having hyperuricemia induced by potassium oxonate; assay: Serum creatinine content of rats having hyperuricemia induced by potassium oxonate (picric acid method); format: in vivo, rat; conditions: administration for 30 d, extracts 200 mg·kg^−1, allopurinol 50 mg·kg^−1, intragastric, x ± s
From the text: as §1, §2

Oc1ncnc2[nH]ncc12 [Allopurinol, allopurinol]
Effect on serum uric acid content versus model group (in words) [1]: very significant effect in the reduction of the serum uric acid
Creatinine (μmol/L) [2]: 52.9 ± 10.8^b μmol/L
